# Results as given in ChEMBL document CHEMBL1201862, “PubChem BioAssay data set” (2004).
# The source made the active and inactive calls.
# Legend:
# [1] = system: HEK293; assay: cells; assay type: functional, cell-based; settings: Homo sapiens
# [2] = biological target: T1, Nuclear receptor subfamily 0 group B member 1 (Homo sapiens, UniProt P51843); assay: Luminescence-based cell-based high throughput dose response assay for inhibitors of the orphan nuclear receptor subfamily 0, group B, member 1 (DAX1; NR0B1). [Related pubchem assays (depositor defined):AID504766, AID504790]; assay type: functional
# T1 sequence (P51843 whole entry): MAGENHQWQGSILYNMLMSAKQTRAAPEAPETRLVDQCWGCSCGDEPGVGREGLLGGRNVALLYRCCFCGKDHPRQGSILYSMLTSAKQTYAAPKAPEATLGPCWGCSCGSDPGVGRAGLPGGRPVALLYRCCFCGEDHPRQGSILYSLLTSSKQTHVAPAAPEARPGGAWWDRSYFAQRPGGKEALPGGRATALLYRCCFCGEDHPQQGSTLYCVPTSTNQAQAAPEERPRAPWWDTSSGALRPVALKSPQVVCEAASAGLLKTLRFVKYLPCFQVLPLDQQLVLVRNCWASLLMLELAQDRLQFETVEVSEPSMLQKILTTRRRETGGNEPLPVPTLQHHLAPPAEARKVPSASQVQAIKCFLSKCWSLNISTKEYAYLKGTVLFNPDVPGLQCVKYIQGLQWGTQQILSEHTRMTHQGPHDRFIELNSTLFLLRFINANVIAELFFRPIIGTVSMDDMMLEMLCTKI
# [3] = biological target: Trypsin (Sus scrofa, UniProt P00761); assay: porcine trypsin inhibitors, dose response, selectivity assay for Rce1 protease inhibitor project, biochemical, quenched peptide fluorescence, cherry-pick (AID 488789)
# [4] = biological target: T2, CAAX prenyl protease 2 (Homo sapiens, UniProt Q9Y256); assay: human Rce1 protease inhibitors, dose response, biochemical, yeast membranes, quenched-peptide fluorescence, cherry-pick (AID 588849)
# T2 sequence (Q9Y256 whole entry): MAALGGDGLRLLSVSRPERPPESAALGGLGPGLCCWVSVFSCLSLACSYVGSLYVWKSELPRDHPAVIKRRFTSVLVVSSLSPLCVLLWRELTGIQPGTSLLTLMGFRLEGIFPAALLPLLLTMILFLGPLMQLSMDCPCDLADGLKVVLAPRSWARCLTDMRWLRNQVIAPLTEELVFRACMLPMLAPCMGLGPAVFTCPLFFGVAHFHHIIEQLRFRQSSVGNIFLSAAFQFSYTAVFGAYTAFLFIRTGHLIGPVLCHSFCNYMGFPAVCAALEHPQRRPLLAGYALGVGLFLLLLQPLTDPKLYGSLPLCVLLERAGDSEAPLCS
# [5] = biological target: T3, CAAX prenyl protease 2 (Saccharomyces cerevisiae S288c, UniProt Q03530); assay type: biochemical
# T3 sequence (Q03530 whole entry): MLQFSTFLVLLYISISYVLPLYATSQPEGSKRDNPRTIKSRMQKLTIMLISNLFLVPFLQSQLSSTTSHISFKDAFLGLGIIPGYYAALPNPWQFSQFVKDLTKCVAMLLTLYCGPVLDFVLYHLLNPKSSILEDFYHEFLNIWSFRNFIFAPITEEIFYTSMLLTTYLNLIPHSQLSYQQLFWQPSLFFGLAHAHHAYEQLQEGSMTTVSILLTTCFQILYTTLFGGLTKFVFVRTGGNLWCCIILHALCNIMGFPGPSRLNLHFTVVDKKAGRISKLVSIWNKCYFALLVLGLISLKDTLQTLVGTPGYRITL
# [6] = Luminescence Cell-Based Dose Response HTS to Identify Activators of Luciferase Translation or Activity in H4 […] Cells. [Related pubchem assays: 1829 (Project Summary), 1814 (Primary HTS)]; assay type: functional
# [7] = biological target: Nonstructural protein 1 (Influenza A virus, UniProt Q194T2); assay type: functional, Influenza A virus (A/California/07/2009(H1N1))
# [8] = system: BJ; assay: cytotoxicity toward BJ-TERT-LT-ST fibroblasts, dose response, cell-based, RAS-independent, luminescence (AID 1935); assay type: functional; settings: Homo sapiens;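 also: BJ fibroblasts immortalized with TERT plus LT and ST oncogenes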
# [9] = system: BJ; assay: cells; assay type: functional, cell-based; settings: Homo sapiens
# [10] = system: BJ; assay: cytotoxicity toward Ras-transformed BJeLR fibroblasts, dose response, cell-based, alamar blue fluorescence, cherrypicked samples (AID 2631); assay type: functional; settings: Homo sapiens;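 also: confirmatory dose-response assay in RAS-dependent BJ fibroblasts engineered with TERT, LT and ST, with cytotoxicity read by fluorescence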
# [11] = cytotoxicity toward DRD oncogenic fibroblasts, dose response, cell-based, non-viral oncogenic, luminescence (AID 1934); assay type: functional; settings: Homo sapiens
# [12] = system: BJ; assay: cytotoxicity toward BJ-TERT fibroblasts, dose response, cell-based, RAS-independent, luminescence (AID 1933); assay type: functional; settings: Homo sapiens
# Nonstructural protein 1, sequence (Q194T2 whole entry): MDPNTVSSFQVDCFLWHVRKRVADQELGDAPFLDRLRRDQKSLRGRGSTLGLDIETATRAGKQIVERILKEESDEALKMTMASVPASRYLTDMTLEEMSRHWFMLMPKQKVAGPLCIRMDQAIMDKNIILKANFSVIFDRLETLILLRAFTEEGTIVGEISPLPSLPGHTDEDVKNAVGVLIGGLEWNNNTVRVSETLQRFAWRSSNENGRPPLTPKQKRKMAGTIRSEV
# Trypsin, sequence (P00761 whole entry): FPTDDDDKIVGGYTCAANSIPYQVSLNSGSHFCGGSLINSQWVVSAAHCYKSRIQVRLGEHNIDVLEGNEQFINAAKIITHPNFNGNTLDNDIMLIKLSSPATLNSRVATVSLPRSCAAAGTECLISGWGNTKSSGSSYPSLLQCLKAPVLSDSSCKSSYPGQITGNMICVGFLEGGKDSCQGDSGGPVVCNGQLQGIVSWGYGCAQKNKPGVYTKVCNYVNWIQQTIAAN
compound,measurement,setting,value
Fc1ccccc1/C=N/Nc1cc(N2CCCCC2)ncn1,IC50,[1],> 67.5 µM (inactive)
same,IC50,[2],> 67.5 µM (inactive)
CCn1c2ccccc2c2cc(/C=N/NC(=O)c3ccc(O)cc3)ccc21,AC50,[3],4.51 µM (active)
same,AC50,[4],40.3 µM (active)
same,AC50,[5],21.6 µM (active)
O=C(Nc1ccc(F)cc1)/C(Cl)=C/c1ccccc1,EC50,[6],5.09 µM (active)
same,IC50,[1],> 67.5 µM (inactive)
same,IC50,[2],> 67.5 µM (inactive)
Cc1ccnc2nc(C(=O)Nc3nc(-c4ccccn4)cs3)nn12,IC50,[1],65.2 µM (inactive)
same,IC50,[7],5.06 µM (active)
same,IC50,[2],> 67.5 µM (inactive)
Cc1ccc(/C=C2\SC(=S)N(CCCC(=O)N3CCOCC3)C2=O)cc1,EC50,[8],> 150 µM (inconclusive)
same,EC50,[9],> 150 µM (not active)
same,EC50,[10],> 66.7 µM (inactive)
same,EC50,[11],15.3 µM (active)
same,EC50,[12],7.06 µM (inconclusive)
